Active and inactive are the calls of the source.
How the values were obtained:
ORF 73 = target: T1, ORF 73 (Human herpesvirus 8, UniProt O40947); experiment: inhibitors of C-LANA binding to LBS DNA, dose response, biochemical, fluorescence polarization, cherry-picked samples (AID 504725); parameters: species or system Human gammaherpesvirus 8;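 also: fluorescence polarization of a labeled DNA duplex reporting LANA DNA binding; potency is for inhibitors that block LANA binding to the DNA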
T1 sequence (O40947 whole entry): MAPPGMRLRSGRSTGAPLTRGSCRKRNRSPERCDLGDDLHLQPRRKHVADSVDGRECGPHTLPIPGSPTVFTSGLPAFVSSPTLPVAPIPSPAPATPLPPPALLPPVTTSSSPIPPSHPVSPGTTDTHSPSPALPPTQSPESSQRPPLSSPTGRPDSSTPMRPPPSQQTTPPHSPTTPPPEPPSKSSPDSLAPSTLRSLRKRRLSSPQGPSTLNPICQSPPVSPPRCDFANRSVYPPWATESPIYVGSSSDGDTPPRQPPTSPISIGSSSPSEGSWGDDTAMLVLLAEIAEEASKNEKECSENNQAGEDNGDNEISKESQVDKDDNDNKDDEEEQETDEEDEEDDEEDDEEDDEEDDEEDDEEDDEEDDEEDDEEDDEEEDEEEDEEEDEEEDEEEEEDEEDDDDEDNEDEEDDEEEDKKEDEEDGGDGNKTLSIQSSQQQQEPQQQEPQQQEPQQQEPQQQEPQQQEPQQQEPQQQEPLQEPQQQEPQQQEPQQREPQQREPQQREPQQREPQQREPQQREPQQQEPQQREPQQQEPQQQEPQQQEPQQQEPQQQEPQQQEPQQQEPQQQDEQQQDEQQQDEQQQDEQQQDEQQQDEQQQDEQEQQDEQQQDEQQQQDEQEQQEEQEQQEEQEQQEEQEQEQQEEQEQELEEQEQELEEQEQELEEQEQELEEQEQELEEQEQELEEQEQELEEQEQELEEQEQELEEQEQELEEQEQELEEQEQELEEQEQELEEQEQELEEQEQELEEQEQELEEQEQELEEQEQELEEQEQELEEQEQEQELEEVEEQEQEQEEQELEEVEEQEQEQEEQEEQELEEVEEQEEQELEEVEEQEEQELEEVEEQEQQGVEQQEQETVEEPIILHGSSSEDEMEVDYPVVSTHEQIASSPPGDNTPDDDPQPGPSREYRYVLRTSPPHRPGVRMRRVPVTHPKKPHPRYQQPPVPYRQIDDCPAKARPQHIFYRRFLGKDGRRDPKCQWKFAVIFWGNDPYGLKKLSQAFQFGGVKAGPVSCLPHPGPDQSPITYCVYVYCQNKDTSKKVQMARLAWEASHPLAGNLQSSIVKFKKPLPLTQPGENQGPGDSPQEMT

Nonstructural protein 1 = Nonstructural protein 1 (Influenza A virus, UniProt Q194T2); type: functional, Influenza A virus (A/California/07/2009(H1N1))
HeLa = experiment: HeLa cell cytotoxicity, dose response, cytotoxicity control, 24 h, cherry-picked samples (AID 504726); type: functional, cell-based; settings: Homo sapiens;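 also: potency for cytotoxicity as loss of luminescence signal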
[1] = target: Cystic fibrosis transmembrane conductance regulator/Golgi-associated PDZ and coiled-coil motif-containing protein (Homo sapiens, UniProt P13569+Q9HD26); experiment: CAL PDZ peptide-binding inhibitors, dose response, biochemical, fluorescence polarization, Cerulean-tagged CAL PDZ, cherry-picks (AID 504773)
[2] = target: Eukaryotic translation initiation factor 4E (Mus musculus, UniProt P63073); experiment: eIF4E–eIF4G protein interaction inhibitors, dose response, biochemical, TR-FRET (AID 855); type: functional;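 also: potency for disrupting eIF4E binding to eIF4GI seen as loss of FRET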
[3] = target: NACHT, LRR and PYD domains-containing protein 1 (Homo sapiens, UniProt Q9C000); experiment: NALP1 inhibitors in yeast, dose response, luminescent (AID 488860); type: functional
[4] = target: 5-hydroxytryptamine receptor 2A (Mus musculus, UniProt P35363); type: functional, cell-based;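 also: CHO-K1 cells with tagged receptor and beta-arrestin; agonist potency measured as compound-induced activation of the receptor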
[5] = HEp-2 cell cytotoxicity, dose response, cytotoxicity control for RSV inhibitor project, HTS (AID 2410); type: functional; settings: human respiratory syncytial virus
Saccharomyces cerevisiae = experiment: NALP1 inhibitor project selectivity study, Caspase-1/ASC signal blockade IC50 in S. cerevisiae (AID 488863); type: functional, organism-based
Mu-type opioid receptor = Mu-type opioid receptor (Homo sapiens, UniProt P35372); type: functional, cell-based;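 also: U2OS cells with beta-arrestin recruitment to OPRM1 by beta-gal complementation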
SUMO-activating enzyme [6] = target: T2, SUMO-activating enzyme (Homo sapiens, UniProt Q9UBT2); experiment: inhibitors of in vitro SUMOylation cascade, primary screen, biochemical, HTRF, uHTS (AID 2006); type: protein-complex assay
SUMO-activating enzyme [7] = target: T2, SUMO-activating enzyme; experiment: SUMOylation inhibitor hit validation, confirmation, SUMOylation inhibitor project, biochemical, AlphaScreen (AID 2018); type: functional
[8] = A549 cell cytotoxicity, dose response, cytotoxicity control, plate reader, cherry-pick, antagonist series (AID 743412); type: functional, cell-based
[9] = cytotoxicity in HEK-293T cells, dose response, cytotoxicity control for TCR NF-kB inhibitor project, luminescence, T-cell screen hits (AID 489026); type: functional, cell-based;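 also: cells exposed to compound about 14 hours before the viability readout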
[10] = target: T3, Small ubiquitin-related modifier 1 (Homo sapiens, UniProt P63165); experiment: inhibitors of SUMO1 partner interactions, dose response, biochemical, FRET (AID 624383); type: functional; settings: read-out: IC50_Mean
[11] = cytotoxicity toward NIH3T3 fibroblasts, dose response, counter-screen, cell-based, ATP luminescence, mouse fibroblasts (AID 2010); type: functional;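 also: cells exposed to compound for about 90 hours before reading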
[12] = inhibitors of firefly luciferase expression or activity, dose response, H4 neuroglioma cells, luminescence (AID 1990); type: functional, cell-based
[13] = microbe, parasite or virus in culture; type: functional; settings: Mycobacterium tuberculosis
[14] = HEK293 cell cytotoxicity, dose response, cytotoxicity control, plate reader, cherry-picked samples (AID 743446); type: functional, cell-based
HEK293 = experiment: inhibitors of LMP1-driven NF-kB reporter, dose response, cell-based, HEK293, luciferase, cherry-pick (AID 588343); type: functional; settings: Homo sapiens
[15] = HeLa cell cytotoxicity, dose response, cytotoxicity control for MgcRacGAP inhibitor project (AID 624300); type: functional
[16] = target: T3, Small ubiquitin-related modifier 1; experiment: inhibitors of SUMO1 peptide binding, dose response, biochemical, fluorescence polarization, uHTS hits (AID 624382); type: functional; settings: read-out: IC50_Mean
[17] = target: T4, Ubiquitin-conjugating enzyme E2 N (Homo sapiens, UniProt P61088); type: functional
T4 sequence (P61088 whole entry): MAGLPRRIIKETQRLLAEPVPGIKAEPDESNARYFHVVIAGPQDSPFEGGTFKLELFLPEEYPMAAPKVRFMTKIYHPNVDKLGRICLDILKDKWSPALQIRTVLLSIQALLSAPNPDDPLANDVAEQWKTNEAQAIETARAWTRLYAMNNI

[18] = inhibitors of intracellular T. cruzi replication, confirmation, NIH3T3 host cells, beta-gal luminescence (AID 2044); type: functional, cell-based;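 also: intracellular parasites grown in NIH/3T3 mouse fibroblasts as host cells; luminescent beta-galactosidase reporter signal from transgenic T. cruzi replicating inside host cells; inhibitors lower the luminescence signal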
INS1 = experiment: beta cell apoptosis inhibitors, cytokine rescue, dose response, luminescence, retest (AID 449756); type: functional, cell-based; settings: Rattus norvegicus;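 also: cell death triggered by IL-1 beta plus TNF-alpha plus IFN-gamma mixture; protective hits raise ATP signal compared with cytokine alone wells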
[19] = inhibitors of SNCA 5'UTR-driven reporter translation, confirmation, H4 neuroglioma cells, luminescence (AID 1988); type: functional, cell-based
[20] = Luminescence Cell-Based Dose Response HTS to Identify Inhibitors of 5'UTR Stem-Loop Driven Prion Protein mRNA Translation in H4 Neuroglioblastoma Cells. [Related pubchem assays: 1827 (Project Summary), 1813 (Primary HTS)]; type: functional
[21] = target: T4, Ubiquitin-conjugating enzyme E2 N; type: functional; remark: listed apart in the source
Bcl-2-related protein A1 = target: T5, Bcl-2-related protein A1 (Mus musculus, UniProt Q07440); type: functional;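 also: confirmatory dose–response counterscreen on Bfl-1, used to check hits from a UBC13 polyubiquitin inhibitor campaign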
T5 sequence (Q07440 whole entry): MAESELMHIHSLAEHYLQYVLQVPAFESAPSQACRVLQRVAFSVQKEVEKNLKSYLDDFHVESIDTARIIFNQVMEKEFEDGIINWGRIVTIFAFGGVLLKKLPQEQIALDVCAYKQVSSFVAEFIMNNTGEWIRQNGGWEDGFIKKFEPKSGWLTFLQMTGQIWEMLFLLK

[22] = HepG2 cell cytotoxicity, dose response, cytotoxicity control, plate reader, cherry-pick, antagonist series (AID 743416); type: functional, cell-based
[23] = MC4R antagonists, dose response, counter-screen for LGR2 antagonist project, cell-based, plate reader, cherry pick (AID 743444); type: functional;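 also: transfected HEK 293 cells stimulated with alpha-MSH peptide; potency of inhibitors of the alpha-MSH evoked signal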
[24] = LGR2 antagonists, dose response, cell-based, HEK293, CRE-luciferase reporter, cherry pick, set 2 (AID 743343); type: functional;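 also: transfected cells were stimulated with diluted bursicon conditioned medium after compound addition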
[25] = target: T6, Rac GTPase-activating protein 1 (Homo sapiens, UniProt Q9H0H5); experiment: MgcRacGAP GTPase-activating activity inhibitors, confirmation, biochemical, ADP Hunter fluorescence, primary and confirmatory (AID 624330); type: functional
T6 sequence (Q9H0H5 whole entry): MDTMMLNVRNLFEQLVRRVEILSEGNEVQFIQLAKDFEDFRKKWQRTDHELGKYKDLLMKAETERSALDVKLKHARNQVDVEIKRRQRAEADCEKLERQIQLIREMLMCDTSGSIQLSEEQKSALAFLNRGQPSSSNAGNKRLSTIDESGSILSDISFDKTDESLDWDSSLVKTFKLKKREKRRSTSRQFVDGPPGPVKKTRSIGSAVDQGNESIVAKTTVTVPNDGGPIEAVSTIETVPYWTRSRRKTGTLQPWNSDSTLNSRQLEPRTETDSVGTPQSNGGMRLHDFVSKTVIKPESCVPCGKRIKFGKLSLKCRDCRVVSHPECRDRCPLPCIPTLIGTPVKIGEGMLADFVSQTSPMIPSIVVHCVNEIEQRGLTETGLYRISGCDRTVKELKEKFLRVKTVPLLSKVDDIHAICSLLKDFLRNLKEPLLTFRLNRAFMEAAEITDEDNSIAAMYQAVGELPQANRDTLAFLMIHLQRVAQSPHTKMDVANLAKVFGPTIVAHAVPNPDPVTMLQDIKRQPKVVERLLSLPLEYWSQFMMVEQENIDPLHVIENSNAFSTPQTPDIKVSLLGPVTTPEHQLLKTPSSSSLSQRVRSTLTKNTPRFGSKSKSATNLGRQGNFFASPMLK

[26] = target: T7, Type-1 angiotensin II receptor (Homo sapiens, UniProt P30556); experiment: AT1 receptor agonists, dose response, selectivity assay for APJ receptor agonist project, cell-based, uHTS hits (AID 488865); type: functional;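 also: beta-arrestin recruitment to AT1 measured by enzyme fragment complementation luminescence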
T7 sequence (P30556 whole entry): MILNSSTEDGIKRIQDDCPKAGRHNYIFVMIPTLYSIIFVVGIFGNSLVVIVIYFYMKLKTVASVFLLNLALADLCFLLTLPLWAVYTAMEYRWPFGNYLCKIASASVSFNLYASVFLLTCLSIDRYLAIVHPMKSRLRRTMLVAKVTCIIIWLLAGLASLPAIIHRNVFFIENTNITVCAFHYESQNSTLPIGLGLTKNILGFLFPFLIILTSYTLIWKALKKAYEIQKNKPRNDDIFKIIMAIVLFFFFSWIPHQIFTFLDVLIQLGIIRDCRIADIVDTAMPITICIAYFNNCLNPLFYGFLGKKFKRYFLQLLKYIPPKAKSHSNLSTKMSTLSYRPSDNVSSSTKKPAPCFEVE

[27] = Cytotoxicity screening for potential Inhibitors of Bacterial Capsule Biogenesis. [Related pubchem assays (depositor defined):AID488970]; type: functional
Paired box protein Pax-8 = Paired box protein Pax-8 (Homo sapiens, UniProt Q06710); experiment: inhibitors of PAX8-driven TPO luciferase reporter, dose response, RMG-I cells, cherry-pick (AID 687027); type: functional, cell-based;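 also: luciferase reporter driven by Pax8 target thyroperoxidase promoter measured by SteadyGlo luminescence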

T2 sequence (Q9UBE0 whole entry): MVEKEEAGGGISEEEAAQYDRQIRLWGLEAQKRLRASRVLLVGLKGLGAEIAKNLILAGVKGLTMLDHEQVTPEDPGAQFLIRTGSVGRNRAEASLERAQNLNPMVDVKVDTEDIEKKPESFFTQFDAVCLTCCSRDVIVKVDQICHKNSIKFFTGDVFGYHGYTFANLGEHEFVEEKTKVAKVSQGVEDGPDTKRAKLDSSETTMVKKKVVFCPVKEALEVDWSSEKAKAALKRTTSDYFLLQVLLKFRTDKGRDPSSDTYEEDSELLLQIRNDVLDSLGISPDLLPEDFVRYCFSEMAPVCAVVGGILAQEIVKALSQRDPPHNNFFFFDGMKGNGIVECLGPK
T2 sequence (Q9UBT2 whole entry): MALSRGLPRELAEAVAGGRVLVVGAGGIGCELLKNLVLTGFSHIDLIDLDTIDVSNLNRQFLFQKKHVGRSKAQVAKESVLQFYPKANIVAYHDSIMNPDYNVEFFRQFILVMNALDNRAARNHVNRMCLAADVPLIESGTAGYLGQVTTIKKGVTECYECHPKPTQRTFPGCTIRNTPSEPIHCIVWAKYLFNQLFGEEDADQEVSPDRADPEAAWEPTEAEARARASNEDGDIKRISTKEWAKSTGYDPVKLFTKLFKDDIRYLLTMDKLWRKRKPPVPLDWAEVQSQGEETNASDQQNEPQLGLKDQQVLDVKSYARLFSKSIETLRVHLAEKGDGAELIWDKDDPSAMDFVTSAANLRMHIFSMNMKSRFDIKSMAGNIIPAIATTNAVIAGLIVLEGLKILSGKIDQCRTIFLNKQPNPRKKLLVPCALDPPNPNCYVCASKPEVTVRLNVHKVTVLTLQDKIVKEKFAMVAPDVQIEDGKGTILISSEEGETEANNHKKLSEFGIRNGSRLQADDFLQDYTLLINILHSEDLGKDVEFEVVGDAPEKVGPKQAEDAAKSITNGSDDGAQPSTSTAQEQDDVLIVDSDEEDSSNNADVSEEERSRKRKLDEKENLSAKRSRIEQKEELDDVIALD
NACHT, LRR and PYD domains-containing protein 1, sequence (Q9C000 1-1212 limits assumed): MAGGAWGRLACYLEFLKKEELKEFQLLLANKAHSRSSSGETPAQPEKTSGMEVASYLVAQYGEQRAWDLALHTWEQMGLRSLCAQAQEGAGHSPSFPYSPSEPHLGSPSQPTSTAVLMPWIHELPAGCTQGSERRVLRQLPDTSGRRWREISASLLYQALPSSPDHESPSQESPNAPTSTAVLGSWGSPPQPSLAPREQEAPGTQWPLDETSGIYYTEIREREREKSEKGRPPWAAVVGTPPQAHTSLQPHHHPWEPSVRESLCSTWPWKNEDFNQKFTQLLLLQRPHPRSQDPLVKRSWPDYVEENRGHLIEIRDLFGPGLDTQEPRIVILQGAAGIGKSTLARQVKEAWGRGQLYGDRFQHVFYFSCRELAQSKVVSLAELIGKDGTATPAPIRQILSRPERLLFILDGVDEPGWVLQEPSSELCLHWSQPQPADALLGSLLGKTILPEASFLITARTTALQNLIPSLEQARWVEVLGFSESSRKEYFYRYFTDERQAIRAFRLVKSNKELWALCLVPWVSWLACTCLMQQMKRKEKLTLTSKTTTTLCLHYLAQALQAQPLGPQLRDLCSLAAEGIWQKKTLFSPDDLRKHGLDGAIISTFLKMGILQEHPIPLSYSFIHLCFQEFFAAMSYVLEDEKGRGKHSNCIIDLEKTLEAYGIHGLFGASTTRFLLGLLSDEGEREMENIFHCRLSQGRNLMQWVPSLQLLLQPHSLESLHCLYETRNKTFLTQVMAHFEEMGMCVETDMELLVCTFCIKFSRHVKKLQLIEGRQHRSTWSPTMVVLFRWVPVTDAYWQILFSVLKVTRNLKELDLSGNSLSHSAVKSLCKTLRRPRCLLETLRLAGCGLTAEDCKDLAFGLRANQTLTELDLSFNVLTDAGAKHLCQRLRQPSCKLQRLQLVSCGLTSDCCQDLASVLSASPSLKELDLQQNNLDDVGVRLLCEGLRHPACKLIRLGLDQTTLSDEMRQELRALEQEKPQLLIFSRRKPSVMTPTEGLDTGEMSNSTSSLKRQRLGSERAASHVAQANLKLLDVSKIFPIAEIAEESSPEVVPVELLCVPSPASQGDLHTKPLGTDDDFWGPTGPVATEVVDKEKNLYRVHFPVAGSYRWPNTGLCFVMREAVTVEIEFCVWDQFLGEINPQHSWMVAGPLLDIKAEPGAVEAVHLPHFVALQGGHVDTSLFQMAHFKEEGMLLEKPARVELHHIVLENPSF
NACHT, LRR and PYD domains-containing protein 1, sequence (Q9C000 1213-1473 limits assumed): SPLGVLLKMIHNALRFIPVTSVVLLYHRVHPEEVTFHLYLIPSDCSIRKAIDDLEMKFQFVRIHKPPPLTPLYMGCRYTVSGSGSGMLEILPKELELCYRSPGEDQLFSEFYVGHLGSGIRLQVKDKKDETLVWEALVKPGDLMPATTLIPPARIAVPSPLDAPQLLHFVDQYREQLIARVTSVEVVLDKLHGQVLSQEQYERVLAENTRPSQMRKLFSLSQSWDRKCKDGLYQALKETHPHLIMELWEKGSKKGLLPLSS
Cystic fibrosis transmembrane conductance regulator/Golgi-associated PDZ and coiled-coil motif-containing protein, sequence (P13569 whole entry, other chains not shown): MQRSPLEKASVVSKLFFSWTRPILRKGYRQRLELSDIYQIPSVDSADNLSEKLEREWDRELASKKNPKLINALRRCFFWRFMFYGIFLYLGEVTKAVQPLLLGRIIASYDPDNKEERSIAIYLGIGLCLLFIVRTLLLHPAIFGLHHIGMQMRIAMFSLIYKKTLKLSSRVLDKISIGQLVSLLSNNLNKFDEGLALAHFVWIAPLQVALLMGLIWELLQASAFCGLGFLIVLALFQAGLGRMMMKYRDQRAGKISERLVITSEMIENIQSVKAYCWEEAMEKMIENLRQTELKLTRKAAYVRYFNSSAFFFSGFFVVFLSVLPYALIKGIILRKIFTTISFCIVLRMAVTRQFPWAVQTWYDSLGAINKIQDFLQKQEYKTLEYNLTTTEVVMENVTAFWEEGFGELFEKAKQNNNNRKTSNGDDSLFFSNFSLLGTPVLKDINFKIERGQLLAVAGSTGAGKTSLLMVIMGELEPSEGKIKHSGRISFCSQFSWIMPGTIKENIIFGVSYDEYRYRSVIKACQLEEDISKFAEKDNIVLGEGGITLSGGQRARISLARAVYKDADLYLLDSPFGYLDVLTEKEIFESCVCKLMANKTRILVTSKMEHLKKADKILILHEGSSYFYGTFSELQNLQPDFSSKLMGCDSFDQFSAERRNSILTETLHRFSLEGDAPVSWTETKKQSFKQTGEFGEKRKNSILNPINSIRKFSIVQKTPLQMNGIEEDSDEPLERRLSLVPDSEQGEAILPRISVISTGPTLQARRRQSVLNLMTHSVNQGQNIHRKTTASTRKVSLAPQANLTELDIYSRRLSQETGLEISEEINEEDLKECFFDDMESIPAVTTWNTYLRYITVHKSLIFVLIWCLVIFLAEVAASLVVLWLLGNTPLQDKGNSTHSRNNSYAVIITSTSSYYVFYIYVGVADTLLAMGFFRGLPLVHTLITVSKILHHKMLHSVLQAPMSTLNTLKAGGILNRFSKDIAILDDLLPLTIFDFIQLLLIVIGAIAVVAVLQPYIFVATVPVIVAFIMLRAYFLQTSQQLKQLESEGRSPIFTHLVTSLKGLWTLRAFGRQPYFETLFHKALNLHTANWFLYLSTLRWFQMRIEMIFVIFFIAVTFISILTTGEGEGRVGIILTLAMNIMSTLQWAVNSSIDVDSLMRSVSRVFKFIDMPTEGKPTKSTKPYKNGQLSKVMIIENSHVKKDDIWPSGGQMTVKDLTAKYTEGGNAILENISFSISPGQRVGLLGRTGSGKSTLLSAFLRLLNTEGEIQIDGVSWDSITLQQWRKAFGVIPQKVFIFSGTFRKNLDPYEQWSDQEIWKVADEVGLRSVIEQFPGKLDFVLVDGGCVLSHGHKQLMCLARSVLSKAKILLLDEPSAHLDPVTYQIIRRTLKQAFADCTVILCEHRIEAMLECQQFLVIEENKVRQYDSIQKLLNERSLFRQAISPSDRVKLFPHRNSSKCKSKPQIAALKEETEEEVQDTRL
T3 sequence (P63165 whole entry): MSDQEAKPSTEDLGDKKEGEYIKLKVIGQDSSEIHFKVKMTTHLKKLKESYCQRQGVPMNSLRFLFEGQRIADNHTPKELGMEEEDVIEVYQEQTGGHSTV
Mu-type opioid receptor, sequence (P35372 whole entry): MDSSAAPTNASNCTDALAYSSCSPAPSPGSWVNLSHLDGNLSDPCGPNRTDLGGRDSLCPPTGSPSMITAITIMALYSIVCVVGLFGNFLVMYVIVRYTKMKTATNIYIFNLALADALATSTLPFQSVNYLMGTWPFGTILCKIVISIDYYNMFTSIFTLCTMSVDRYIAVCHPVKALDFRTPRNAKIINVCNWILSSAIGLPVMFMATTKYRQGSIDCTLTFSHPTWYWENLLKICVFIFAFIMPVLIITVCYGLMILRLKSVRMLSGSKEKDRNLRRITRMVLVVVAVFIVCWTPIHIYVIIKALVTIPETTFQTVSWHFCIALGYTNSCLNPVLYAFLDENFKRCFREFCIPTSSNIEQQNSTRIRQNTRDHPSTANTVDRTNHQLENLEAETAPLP
Nonstructural protein 1, sequence (Q194T2 whole entry): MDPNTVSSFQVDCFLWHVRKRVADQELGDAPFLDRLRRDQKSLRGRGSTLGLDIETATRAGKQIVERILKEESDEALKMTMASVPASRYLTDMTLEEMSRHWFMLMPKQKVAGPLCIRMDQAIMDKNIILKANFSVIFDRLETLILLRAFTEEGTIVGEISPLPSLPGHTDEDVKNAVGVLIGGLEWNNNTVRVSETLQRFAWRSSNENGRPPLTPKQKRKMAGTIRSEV
Eukaryotic translation initiation factor 4E, sequence (P63073 whole entry, the tested form may be a part): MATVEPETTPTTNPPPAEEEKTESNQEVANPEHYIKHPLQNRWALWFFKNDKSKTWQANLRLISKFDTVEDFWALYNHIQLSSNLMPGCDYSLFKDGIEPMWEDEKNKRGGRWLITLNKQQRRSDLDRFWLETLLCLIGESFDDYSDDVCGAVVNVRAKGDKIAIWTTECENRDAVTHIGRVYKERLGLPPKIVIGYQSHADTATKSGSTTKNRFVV

Structure (SMILES): COc1ccc(OC)c(-c2c3cc(O)c(=O)cc-3oc3cc(O)c(O)cc23)c1
- AC50 (ORF 73): 1.56 µM (active)
- IC50 (Nonstructural protein 1): 20.3 µM (active)
- AC50 (HeLa): 135 µM (active)
- AC50 [1]: 13.3 µM (active)
- IC50 [2]: 15.7 µM (active)

Structure (SMILES): COc1ccc(C)cc1NC(=O)c1ccc(CN2CCN(c3ccccc3)CC2)cc1
- IC50 [3]: > 100 µM (inactive)
- EC50 [4]: 76.1 µM (inactive)
- CC50 [5]: 21.4 µM (active)
- IC50 (Saccharomyces cerevisiae): > 100 µM (inactive)
- EC50 (Mu-type opioid receptor): 92.5 µM (inactive)

Structure (SMILES): CCOC(=O)C1CCCN(Cc2ccc(OCC)cc2)C1 (stereo not given)
- IC50 [3]: > 100 µM (inactive)
- IC50 (Saccharomyces cerevisiae): > 100 µM (inactive)

Structure (SMILES): COc1ccc(NC(=O)CN2C(=O)S/C(=C/c3cccn3-c3ccc(C(=O)O)cc3)C2=O)cc1
- IC50 (SUMO-activating enzyme [6]): 10.5 µM (active)
- IC50 (SUMO-activating enzyme [7]): 5.52 µM (active)

Structure (SMILES): COc1ccc(/C=N/Nc2cc(C)nc3ccc(OC)cc23)c(OC)c1
- AC50 [8]: 4.32 µM (active)
- IC50 [9]: 28.1 µM (inactive)
- IC50 [10]: 9.36 µM (active)
- EC50 [11]: 7.61 µM (active)
- EC50 [12]: 8.87 µM (active)
- CC50 [13]: 1.77 µM (active)
- AC50 [14]: 9.83 µM (active)
- AC50 (HEK293): 3.43 µM (active)
- CC50 [15]: 17.9 µM (active)
- IC50 [16]: > 66.6 µM (inactive)
- IC50 [17]: 9.1 µM (active)
- EC50 [18]: 0.72 µM (active)
- AC50 (INS1): 7.95 µM (active)
- EC50 [19]: 8.01 µM (active)
- AC50 [1]: 38.7 µM (active)
- EC50 [20]: 8.29 µM (active)
- IC50 [21]: 6.39 µM (active)
- IC50 (Bcl-2-related protein A1): 11.4 µM (active)
- AC50 [22]: 3.97 µM (active)
- AC50 [23]: 10.8 µM (active)
- AC50 [24]: 8.34 µM (active)
- IC50 [25]: 36.4 µM (active)
- EC50 [26]: > 100 µM (inactive)

Structure (SMILES): Sc1nnc(-c2cccc(Cl)c2)n1/N=C/c1ccc(-c2ccccc2Br)o1
- CC50 [5]: > 50 µM (active)
- IC50 (SUMO-activating enzyme [6]): 28 µM (active)
- IC50 (SUMO-activating enzyme [7]): 12.6 µM (active)

Structure (SMILES): O=C(Nc1cccc(C2=NCCN2)c1)Nc1cccc(C2=NCCN2)c1 [IMIDOCARB DIPROPIONATE]
- CC50 [27]: > 100 µM (active)
- AC50 (Paired box protein Pax-8): 0.879 µM (active)
- IC50 [17]: 13.2 µM (active)
- IC50 [21]: 10.6 µM (active)
- IC50 (Bcl-2-related protein A1): > 20 µM (inactive)

Reference: ChEMBL document CHEMBL1201862, “PubChem BioAssay data set” (2004)
